{"source": "patent US8853454B2", "about": "“Quaternary ammonium salts as microbe inhibitors” (Mionix Corporation, priority 2006, dated 2014)", "origin": "cited, not measured here", "conditions": "in vivo"}
{"compound": "OCCCl", "note": "[2-chloroethanol]", "values": [{"measurement": "oral lethal dose", "value": "50 to 500", "unit": "mg/kg"}]}
